Results as given in patent US6770597B2, “Benzohydrazide derivatives as herbicides and desiccant compositions containing them” (Ishihara Sangyo Kaisha, Ltd., priority 2002, dated 2004).

Assays:
Format in all cases: in vivo
[1] = system: barnyardgrass (Echinochloa crus-galli, ECHCG); assay: Greenhouse herbicide screen, post-emerge application, phytotoxicity rating; details: POST emergent, 14 days after application, scale 0-100
Excerpt: (§1) A standard greenhouse herbicide activity screening system was used to evaluate the herbicidal efficacy and crop safety of these test compounds. Seven broadleaf weed species including redroot pigweed (Amaranthus retrofiexus, AMARE), velvetleaf (Abutilon theophrasti, ABUTH), sicklepod (Cassia obtusifolia, CASOB), ivyleaf morningglory (Ipomoea hederacea, IPOHE), lambsquarters (Chenopodium album, CHEAL), common ragweed (Ambrosia artemisiifolia L., AMBEL), and cocklebur (Xanthium strumarium, XANST) were used as test species. Four grass weed species including green foxtail (Setaria viridis, SETVI), barnyardgrass (Echinochloa crus-galli, ECHCG), johnsongrass (Sorghum halepense, SORHA), and large crabgrass (Digitaria sanguinalis, DIGSA) were also used. In addition, four crop species, field corn (Zea mays L., var. Dekalb 535, CORN), soybean (Glycine max L., var. Pella 86, SOY), upland rice (Oryza sp., var.Cocodrie, RICE) and wheat (Triticum aestivum L.) were included.
(§2) All plants were grown in 10 cm square plastic pots which were filled with a sandy loam soil mix. For pre-emerge tests, seeds were planted one day prior to application of the test compounds. For post-emerge tests, seeds were planted 8-21 days prior to the test to allow emergence and good foliage development prior to application of the test substances. At the time of the post-emerge application, plants of all species were usually at the 2-3 leaf stage of development.
(§3) All test compounds were dissolved in acetone and applied to the test units in a volume of 187 l/ha. Test materials were applied at rates ranging from 15 g ai/ha to 1000 g ai/ha using a track sprayer equipped with a TJ8001E even flow flat fan spray nozzle. Plants were arranged on a shelf so that the top of the canopy (post-emerge) or top of the soil surface (pre-emerge) was 40-45 cm below the nozzle. Pressurized air was used to force the test solution through the nozzle as it was mechanically advanced (via electrically driven chain drive) over the top of all test plants/pots. This application simulates a typical commercial field herbicide application.
(§4) Pre-emergence tests were top watered immediately after treatment to incorporate the test materials, then routinely top-watered for normal growth. Post-emerge test units were always bottom-watered.
(§5) At 14 days after application of the test materials, phytotoxicity ratings were recorded. A rating scale of 0-100 was used as previously described in Research Methods in Weed Science, 2nd edition, B. Truelove, Ed., Southern Weed Science Society, Auburn University, Auburn, Ala., 1977. Briefly, “0” corresponds to no damage and “100” corresponds to complete death of all plants in the test unit. This scale was used both to determine efficacy against weed species and damage to crop species. Herbicide activity data for various compounds of this invention, which are shown by compound No. in Tables 1-12, are shown in Tables 13 and 14.

[2] = system: cocklebur (Xanthium strumarium, XANST); assay: as above; details: POST emergent, 14 days after application, scale 0-100
Excerpt: as §1, §2, §3, §4, §5

[3] = system: common ragweed (Ambrosia artemisiifolia L., AMBEL); assay: as above; details: POST emergent, 14 days after application, scale 0-100
Excerpt: as §1, §2, §3, §4, §5

[4] = system: green foxtail (Setaria viridis, SETVI); assay: as above; details: POST emergent, 14 days after application, scale 0-100
Excerpt: as §1, §2, §3, §4, §5

[5] = system: ivyleaf morningglory (Ipomoea hederacea, IPOHE); assay: as above; details: POST emergent, 14 days after application, scale 0-100
Excerpt: as §1, §2, §3, §4, §5

[6] = system: johnsongrass (Sorghum halepense, SORHA); assay: as above; details: POST emergent, 14 days after application, scale 0-100
Excerpt: as §1, §2, §3, §4, §5

[7] = system: lambsquarters (Chenopodium album, CHEAL); assay: as above; details: POST emergent, 14 days after application, scale 0-100
Excerpt: as §1, §2, §3, §4, §5

[8] = system: large crabgrass (Digitaria sanguinalis, DIGSA); assay: as above; details: POST emergent, 14 days after application, scale 0-100
Excerpt: as §1, §2, §3, §4, §5

[9] = system: redroot pigweed (Amaranthus retrofiexus, AMARE); assay: as above; details: POST emergent, 14 days after application
Excerpt: as §1, §2, §3, §4, §5

[10] = system: sicklepod (Cassia obtusifolia, CASOB); assay: as above; details: POST emergent, 14 days after application, scale 0-100
Excerpt: as §1, §2, §3, §4, §5

[11] = system: velvetleaf (Abutilon theophrasti, ABUTH); assay: as above; details: POST emergent, 14 days after application, scale 0-100
Excerpt: as §1, §2, §3, §4, §5

[12] = system: field corn (Zea mays L., var. Dekalb 535, CORN); assay: Greenhouse herbicide screen, post-emerge application, crop damage rating; details: POST emergent, 14 days after application, scale 0-100
Excerpt: as §1, §2, §3, §4, §5

[13] = system: upland rice (Oryza sp., var.Cocodrie, RICE); assay: as above; details: POST emergent, 14 days after application, scale 0-100
Excerpt: as §1, §2, §3, §4, §5

[14] = system: barnyardgrass (Echinochloa crus-galli, ECHCG); assay: Greenhouse herbicide screen, pre-emerge application, phytotoxicity rating; details: PRE emergent, 14 days after application, rating scale 0-100
Excerpt: as §1, §2, §3, §4, §5

[15] = system: cocklebur (Xanthium strumarium, XANST); assay: as above; details: PRE emergent, 14 days after application, rating scale 0-100
Excerpt: as §1, §2, §3, §4, §5

[16] = system: common ragweed (Ambrosia artemisiifolia L., AMBEL); assay: as above; details: PRE emergent, 14 days after application, rating scale 0-100
Excerpt: as §1, §2, §3, §4, §5

[17] = system: green foxtail (Setaria viridis, SETVI); assay: as above; details: PRE emergent, 14 days after application, rating scale 0-100
Excerpt: as §1, §2, §3, §4, §5

[18] = system: ivyleaf morningglory (Ipomoea hederacea, IPOHE); assay: as above; details: PRE emergent, 14 days after application, rating scale 0-100
Excerpt: as §1, §2, §3, §4, §5

[19] = system: johnsongrass (Sorghum halepense, SORHA); assay: as above; details: PRE emergent, 14 days after application, rating scale 0-100
Excerpt: as §1, §2, §3, §4, §5

[20] = system: lambsquarters (Chenopodium album, CHEAL); assay: as above; details: PRE emergent, 14 days after application, rating scale 0-100
Excerpt: as §1, §2, §3, §4, §5

[21] = system: large crabgrass (Digitaria sanguinalis, DIGSA); assay: as above; details: PRE emergent, 14 days after application, rating scale 0-100
Excerpt: as §1, §2, §3, §4, §5

[22] = system: redroot pigweed (Amaranthus retrofiexus, AMARE); assay: as above; details: PRE emergent, 14 days after application, rating scale 0-100
Excerpt: as §1, §2, §3, §4, §5

[23] = system: sicklepod (Cassia obtusifolia, CASOB); assay: as above; details: PRE emergent, 14 days after application, rating scale 0-100
Excerpt: as §1, §2, §3, §4, §5

[24] = system: velvetleaf (Abutilon theophrasti, ABUTH); assay: as above; details: PRE emergent, 14 days after application, rating scale 0-100
Excerpt: as §1, §2, §3, §4, §5

[25] = system: field corn (Zea mays L., var. Dekalb 535, CORN); assay: Greenhouse herbicide screen, pre-emerge application, crop damage rating; details: PRE emergent, 14 days after application, rating scale 0-100
Excerpt: as §1, §2, §3, §4, §5

[26] = system: upland rice (Oryza sp., var.Cocodrie, RICE); assay: as above; details: PRE emergent, 14 days after application, rating scale 0-100
Excerpt: as §1, §2, §3, §4, §5

Q: What does the source list for `CN(NC(=O)c1cc(-n2c(=O)cc(C(F)(F)F)n(C)c2=O)c(F)cc1Cl)c1ccccc1` [Compound 1-9]?
A: phytotoxicity rating ECHCO ([1]; 63 g ai/ha): 98; phytotoxicity rating ECHCO ([1]; 250 g ai/ha): 100; phytotoxicity rating XANST ([2]; 63 g ai/ha): 100; phytotoxicity rating XANST ([2]; 250 g ai/ha): 100; phytotoxicity rating AMBEL ([3]; 63 g ai/ha): 99; phytotoxicity rating AMBEL ([3]; 250 g ai/ha): 100; phytotoxicity rating SETVI ([4]; 63 g ai/ha): 60; phytotoxicity rating SETVI ([4]; 250 g ai/ha): 95; phytotoxicity rating IPOHE ([5]; 63 g ai/ha): 100; phytotoxicity rating IPOHE ([5]; 250 g ai/ha): 100; phytotoxicity rating SORHA ([6]; 63 g ai/ha): 75; phytotoxicity rating SORHA ([6]; 250 g ai/ha): 99; phytotoxicity rating CHEAL ([7]; 63 g ai/ha): 100; phytotoxicity rating CHEAL ([7]; 250 g ai/ha): 100; phytotoxicity rating DIGSA ([8]; 63 g ai/ha): 70; phytotoxicity rating DIGSA ([8]; 250 g ai/ha): 95; phytotoxicity rating AMARE ([9]; 63 g ai/ha, scale 0-100 (0 no damage, 100 complete death)): 100; phytotoxicity rating AMARE ([9]; 250 g ai/ha, scale 0-100): 100; phytotoxicity rating CASOB ([10]; 63 g ai/ha): 80; phytotoxicity rating CASOB ([10]; 250 g ai/ha): 95; phytotoxicity rating ABUTH ([11]; 63 g ai/ha): 100; phytotoxicity rating ABUTH ([11]; 250 g ai/ha): 100; crop damage rating CORN ([12]; 63 g ai/ha): 75; crop damage rating CORN ([12]; 250 g ai/ha): 100; crop damage rating RICE ([13]; 63 g ai/ha): 45; crop damage rating RICE ([13]; 250 g ai/ha): 50; phytotoxicity rating ECHCG ([14]; 63 g ai/ha): 40; phytotoxicity rating ECHCG ([14]; 250 g ai/ha): 70; phytotoxicity rating XANST ([15]; 63 g ai/ha): 20; phytotoxicity rating XANST ([15]; 250 g ai/ha): 70; phytotoxicity rating AMBEL ([16]; 63 g ai/ha): 50; phytotoxicity rating AMBEL ([16]; 250 g ai/ha): 99; phytotoxicity rating SETVI ([17]; 63 g ai/ha): 40; phytotoxicity rating SETVI ([17]; 250 g ai/ha): 80; phytotoxicity rating IPOHE ([18]; 63 g ai/ha): 60; phytotoxicity rating IPOHE ([18]; 250 g ai/ha): 100; phytotoxicity rating SORHA ([19]; 63 g ai/ha): 60; phytotoxicity rating SORHA ([19]; 250 g ai/ha): 99; phytotoxicity rating CHEAL ([20]; 63 g ai/ha): 99; phytotoxicity rating CHEAL ([20]; 250 g ai/ha): 100; phytotoxicity rating DIGSA ([21]; 63 g ai/ha): 50; phytotoxicity rating DIGSA ([21]; 250 g ai/ha): 70; phytotoxicity rating AMARE ([22]; 63 g ai/ha): 100; phytotoxicity rating AMARE ([22]; 250 g ai/ha): 100; phytotoxicity rating CASOB ([23]; 63 g ai/ha): 30; phytotoxicity rating CASOB ([23]; 250 g ai/ha): 90; phytotoxicity rating ABUTH ([24]; 63 g ai/ha): 95; phytotoxicity rating ABUTH ([24]; 250 g ai/ha): 100; crop damage rating CORN ([25]; 63 g ai/ha): 10; crop damage rating CORN ([25]; 250 g ai/ha): 75; crop damage rating RICE ([26]; 63 g ai/ha): 0; crop damage rating RICE ([26]; 250 g ai/ha): 45
